# From article PMC8694051 (Proceedings of the National Academy of Sciences of the …, 2021)
# Structures can show the parent of a compound that is named as a salt. Residues, ends and D or L forms follow the SMILES beside them.
# Legend:
# HGFA = molecular target: T1, HGFA (Homo sapiens, UniProt Q04756); assay: HGFA enzyme inhibition (published assays); type: biochemical
# T1 sequence (Q04756 373-655): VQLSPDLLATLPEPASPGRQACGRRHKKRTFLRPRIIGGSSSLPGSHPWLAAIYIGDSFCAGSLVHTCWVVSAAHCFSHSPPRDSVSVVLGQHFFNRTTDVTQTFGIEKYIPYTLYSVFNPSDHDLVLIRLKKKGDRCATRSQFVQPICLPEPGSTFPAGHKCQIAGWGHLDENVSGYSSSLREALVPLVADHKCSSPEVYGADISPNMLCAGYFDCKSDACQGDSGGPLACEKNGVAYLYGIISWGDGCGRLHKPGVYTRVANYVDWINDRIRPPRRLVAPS
# Matriptase = molecular target: T2, Matriptase (Homo sapiens, UniProt Q9Y5Y6); assay: Matriptase enzyme inhibition (published assays); type: biochemical
# T2 sequence (Q9Y5Y6 1-855): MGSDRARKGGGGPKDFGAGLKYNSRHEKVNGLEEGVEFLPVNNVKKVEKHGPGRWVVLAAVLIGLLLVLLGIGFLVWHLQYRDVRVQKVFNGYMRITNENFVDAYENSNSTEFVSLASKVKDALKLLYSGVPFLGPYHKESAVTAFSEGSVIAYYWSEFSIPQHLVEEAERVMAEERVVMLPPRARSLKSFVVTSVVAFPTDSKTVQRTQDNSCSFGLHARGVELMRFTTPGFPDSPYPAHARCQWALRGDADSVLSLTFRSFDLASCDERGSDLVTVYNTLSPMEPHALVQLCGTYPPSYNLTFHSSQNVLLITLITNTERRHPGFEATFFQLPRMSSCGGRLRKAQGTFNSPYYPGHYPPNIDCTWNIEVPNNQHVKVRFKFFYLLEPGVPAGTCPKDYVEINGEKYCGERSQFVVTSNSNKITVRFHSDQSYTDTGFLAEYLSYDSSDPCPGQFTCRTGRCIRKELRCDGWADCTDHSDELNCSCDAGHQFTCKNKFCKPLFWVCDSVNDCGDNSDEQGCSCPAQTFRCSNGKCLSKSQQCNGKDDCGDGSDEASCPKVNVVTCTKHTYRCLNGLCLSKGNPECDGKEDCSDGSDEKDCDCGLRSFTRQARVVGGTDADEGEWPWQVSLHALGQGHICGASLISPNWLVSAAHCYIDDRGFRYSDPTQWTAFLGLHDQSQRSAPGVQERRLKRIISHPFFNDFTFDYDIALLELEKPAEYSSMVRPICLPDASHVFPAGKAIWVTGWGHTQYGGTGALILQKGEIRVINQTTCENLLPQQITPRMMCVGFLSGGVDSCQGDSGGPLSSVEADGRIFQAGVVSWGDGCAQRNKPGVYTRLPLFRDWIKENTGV
# Hepsin = Hepsin (Homo sapiens, UniProt P05981); assay: Hepsin enzyme inhibition (published assays); type: biochemical
# Thrombin = Thrombin (Homo sapiens, UniProt P00734); assay: Thrombin enzyme inhibition (published assays); type: biochemical
# Factor Xa = Factor Xa (Homo sapiens, UniProt P00742); assay: Factor Xa enzyme inhibition (published assays); type: biochemical
# [1] = test system: VSV-SARS-CoV-2-Spike protein Pseudotype virus; assay: microbe, parasite or virus in culture; type: cell-based; settings: read-out: VSV-SARS-CoV-2 Calu-3 EC50
# Calpain 1 = Calpain 1 (Homo sapiens, UniProt P07384); assay: Protease profiling panel, 10-dose IC50; type: biochemical
# Cathepsin B = Cathepsin B (Homo sapiens, UniProt P07858); assay: Protease profiling panel, 10-dose IC50; type: biochemical
# Cathepsin C = Cathepsin C (Homo sapiens, UniProt P53634); assay: Protease profiling panel, 10-dose IC50; type: biochemical
# Cathepsin H = Cathepsin H (Homo sapiens, UniProt P09668); assay: Protease profiling panel, 10-dose IC50; type: biochemical
# Cathepsin L = Cathepsin L (Homo sapiens, UniProt P07711); assay: Protease profiling panel, 10-dose IC50; type: biochemical
# Cathepsin S = Cathepsin S (Homo sapiens, UniProt P25774); assay: Protease profiling panel, 10-dose IC50; type: biochemical
# Cathepsin V = Cathepsin V (Homo sapiens, UniProt O60911); assay: Protease profiling panel, 10-dose IC50; type: biochemical
# Papain = Papain (Carica papaya, UniProt P00784); assay: Protease profiling panel, 10-dose IC50; type: biochemical
# Caspase 6 = Caspase 6 (Homo sapiens, UniProt P55212); assay: Protease profiling panel, 10-dose IC50; type: biochemical
# Caspase 7 = Caspase 7 (Homo sapiens, UniProt P55210); assay: Protease profiling panel, 10-dose IC50; type: biochemical
# FXa = FXa (Homo sapiens, UniProt P00742); assay: Protease profiling panel, 10-dose IC50; type: biochemical
# Kallikrein 5 = Kallikrein 5 (Homo sapiens, UniProt Q9Y337); assay: Protease profiling panel, 10-dose IC50; type: biochemical
# Kallikrein 7 = Kallikrein 7 (Homo sapiens, UniProt P49862); assay: Protease profiling panel, 10-dose IC50; type: biochemical
# Kallikrein 12 = Kallikrein 12 (Homo sapiens, UniProt Q9UKR0); assay: Protease profiling panel, 10-dose IC50; type: biochemical
# Kallikrein 13 = Kallikrein 13 (Homo sapiens, UniProt Q9UKR3); assay: Protease profiling panel, 10-dose IC50; type: biochemical
# Kallikrein 14 = Kallikrein 14 (Homo sapiens, UniProt Q9P0G3); assay: Protease profiling panel, 10-dose IC50; type: biochemical
# Matriptase 2 = Matriptase 2 (Homo sapiens, UniProt Q8IU80); assay: Protease profiling panel, 10-dose IC50; type: biochemical; settings: values lower than 1.02E-09 M estimated from best curve
# Plasma Kallikrein = Plasma Kallikrein (Homo sapiens, UniProt P03952); assay: Protease profiling panel, 10-dose IC50; type: biochemical
# Plasmin = Plasmin (Homo sapiens, UniProt P00747); assay: Protease profiling panel, 10-dose IC50; type: biochemical
# Thrombin a = Thrombin a (Homo sapiens, UniProt P00734); assay: Protease profiling panel, 10-dose IC50; type: biochemical
# Trypsin = Trypsin (Bos taurus, UniProt P00760); assay: Protease profiling panel, 10-dose IC50; type: biochemical; settings: values lower than 1.02E-09 M estimated from best curve
# Tryptase b2 = Tryptase b2 (Homo sapiens, UniProt P20231); assay: Protease profiling panel, 10-dose IC50; type: biochemical; settings: values lower than 1.02E-09 M estimated from best curve
# Tryptase g1 = Tryptase g1 (Homo sapiens, UniProt Q9NRR2); assay: Protease profiling panel, 10-dose IC50; type: biochemical; settings: values lower than 1.02E-09 M estimated from best curve
# Urokinase = Urokinase (Homo sapiens, UniProt P00749); assay: Protease profiling panel, 10-dose IC50; type: biochemical
# Caspase 1 = Caspase 1 (Homo sapiens, UniProt P29466); assay: Protease profiling panel, 10-dose IC50; type: biochemical
# Caspase 2 = Caspase 2 (Homo sapiens, UniProt P42575); assay: Protease profiling panel, 10-dose IC50; type: biochemical
# Caspase 4 = Caspase 4 (Homo sapiens, UniProt P49662); assay: Protease profiling panel, 10-dose IC50; type: biochemical
# Caspase 5 = Caspase 5 (Homo sapiens, UniProt P51878); assay: Protease profiling panel, 10-dose IC50; type: biochemical
# Caspase 8 = Caspase 8 (Homo sapiens, UniProt Q14790); assay: Protease profiling panel, 10-dose IC50; type: biochemical
# Caspase 9 = Caspase 9 (Homo sapiens, UniProt P55211); assay: Protease profiling panel, 10-dose IC50; type: biochemical
# Caspase 10 = Caspase 10 (Homo sapiens, UniProt Q92851); assay: Protease profiling panel, 10-dose IC50; type: biochemical
# Caspase 11 = Caspase 11 (Mus musculus, UniProt P70343); assay: Protease profiling panel, 10-dose IC50; type: biochemical
# Kallikrein 1 = Kallikrein 1 (Homo sapiens, UniProt P06870); assay: Protease profiling panel, 10-dose IC50; type: biochemical
# Proteinase A = type: biochemical
# wild-type SARS-CoV-2 = assay: microbe, parasite or virus in culture; type: cell-based; settings: Severe acute respiratory syndrome coronavirus 2, Calu-3, 72 h, read-out: SARS-CoV-2 Wild-type Calu-3 IC50 (nM)
# TMPRSS2 protease domain = TMPRSS2 protease domain (Homo sapiens, UniProt O15393); type: biochemical
# Sequence of TMPRSS2 protease domain (O15393 256-492): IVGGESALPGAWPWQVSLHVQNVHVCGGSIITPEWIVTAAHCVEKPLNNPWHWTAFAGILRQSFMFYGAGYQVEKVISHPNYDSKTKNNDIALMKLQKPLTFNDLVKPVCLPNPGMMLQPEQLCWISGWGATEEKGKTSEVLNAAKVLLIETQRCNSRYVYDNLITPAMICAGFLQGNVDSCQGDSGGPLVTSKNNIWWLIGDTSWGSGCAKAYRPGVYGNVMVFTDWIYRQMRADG
# Sequence of Hepsin (P05981 whole entry): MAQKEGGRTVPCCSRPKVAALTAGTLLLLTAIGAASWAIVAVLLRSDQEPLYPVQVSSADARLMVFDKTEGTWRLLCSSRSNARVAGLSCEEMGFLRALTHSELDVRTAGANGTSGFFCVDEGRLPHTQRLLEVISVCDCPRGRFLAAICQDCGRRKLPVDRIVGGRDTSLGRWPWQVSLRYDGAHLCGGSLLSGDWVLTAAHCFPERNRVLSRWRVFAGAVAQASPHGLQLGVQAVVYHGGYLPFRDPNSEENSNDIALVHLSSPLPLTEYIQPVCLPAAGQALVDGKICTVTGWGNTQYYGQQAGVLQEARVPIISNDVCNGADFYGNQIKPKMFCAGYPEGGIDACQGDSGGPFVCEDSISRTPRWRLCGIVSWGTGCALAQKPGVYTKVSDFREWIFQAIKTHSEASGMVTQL
# Sequence of Factor Xa (P00742 235-488 limits assumed): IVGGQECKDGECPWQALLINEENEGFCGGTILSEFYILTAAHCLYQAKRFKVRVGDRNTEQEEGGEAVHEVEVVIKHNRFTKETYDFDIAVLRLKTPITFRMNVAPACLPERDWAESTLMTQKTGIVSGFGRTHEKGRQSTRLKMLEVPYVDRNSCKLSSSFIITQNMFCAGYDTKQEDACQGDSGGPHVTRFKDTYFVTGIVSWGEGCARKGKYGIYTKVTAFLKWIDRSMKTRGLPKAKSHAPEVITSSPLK
# Sequence of Factor Xa (P00742 41-179 partner limits assumed): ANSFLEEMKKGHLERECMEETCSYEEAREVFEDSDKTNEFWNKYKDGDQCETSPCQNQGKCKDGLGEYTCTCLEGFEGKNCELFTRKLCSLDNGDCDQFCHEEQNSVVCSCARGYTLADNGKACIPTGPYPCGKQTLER
# Sequence of Papain (P00784 134-345): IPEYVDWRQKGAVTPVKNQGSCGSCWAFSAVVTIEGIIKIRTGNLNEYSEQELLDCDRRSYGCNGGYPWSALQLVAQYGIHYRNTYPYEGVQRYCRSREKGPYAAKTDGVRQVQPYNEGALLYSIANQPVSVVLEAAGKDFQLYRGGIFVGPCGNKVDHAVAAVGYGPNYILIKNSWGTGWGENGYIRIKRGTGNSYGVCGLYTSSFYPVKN
# Sequence of Kallikrein 1 (P06870 25-262, species assumed): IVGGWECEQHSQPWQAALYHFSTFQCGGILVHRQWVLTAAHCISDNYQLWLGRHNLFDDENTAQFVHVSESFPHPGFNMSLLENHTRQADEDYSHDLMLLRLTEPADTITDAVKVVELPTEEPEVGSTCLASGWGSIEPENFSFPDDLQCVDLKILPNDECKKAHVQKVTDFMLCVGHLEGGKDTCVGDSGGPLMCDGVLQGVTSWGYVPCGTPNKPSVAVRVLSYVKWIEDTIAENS
# Sequence of Cathepsin V (O60911 114-334, species assumed): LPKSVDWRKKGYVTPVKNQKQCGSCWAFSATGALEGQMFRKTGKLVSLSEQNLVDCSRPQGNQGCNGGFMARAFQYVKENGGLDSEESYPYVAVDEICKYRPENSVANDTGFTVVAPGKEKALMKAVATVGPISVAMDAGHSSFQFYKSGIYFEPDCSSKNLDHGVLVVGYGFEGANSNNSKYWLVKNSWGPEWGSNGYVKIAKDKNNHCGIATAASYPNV
# Sequence of Caspase 5 (P51878 137-434, species assumed): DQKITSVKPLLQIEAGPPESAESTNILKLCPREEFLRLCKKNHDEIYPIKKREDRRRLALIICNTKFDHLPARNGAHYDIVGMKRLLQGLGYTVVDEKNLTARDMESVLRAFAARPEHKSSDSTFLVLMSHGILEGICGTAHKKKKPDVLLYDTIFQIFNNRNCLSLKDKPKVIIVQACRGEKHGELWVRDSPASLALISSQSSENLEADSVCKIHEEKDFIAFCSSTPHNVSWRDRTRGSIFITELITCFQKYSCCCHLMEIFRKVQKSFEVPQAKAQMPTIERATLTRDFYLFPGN
# Sequence of Plasmin (P00747 581-810 limits assumed, species assumed): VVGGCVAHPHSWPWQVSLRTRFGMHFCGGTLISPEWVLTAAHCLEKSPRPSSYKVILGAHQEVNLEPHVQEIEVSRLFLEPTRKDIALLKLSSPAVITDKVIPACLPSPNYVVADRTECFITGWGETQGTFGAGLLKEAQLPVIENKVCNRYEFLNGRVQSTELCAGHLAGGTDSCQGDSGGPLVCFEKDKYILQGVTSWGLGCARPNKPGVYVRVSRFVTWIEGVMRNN
# Sequence of Plasmin (P00747 97-580 partner limits assumed, species assumed): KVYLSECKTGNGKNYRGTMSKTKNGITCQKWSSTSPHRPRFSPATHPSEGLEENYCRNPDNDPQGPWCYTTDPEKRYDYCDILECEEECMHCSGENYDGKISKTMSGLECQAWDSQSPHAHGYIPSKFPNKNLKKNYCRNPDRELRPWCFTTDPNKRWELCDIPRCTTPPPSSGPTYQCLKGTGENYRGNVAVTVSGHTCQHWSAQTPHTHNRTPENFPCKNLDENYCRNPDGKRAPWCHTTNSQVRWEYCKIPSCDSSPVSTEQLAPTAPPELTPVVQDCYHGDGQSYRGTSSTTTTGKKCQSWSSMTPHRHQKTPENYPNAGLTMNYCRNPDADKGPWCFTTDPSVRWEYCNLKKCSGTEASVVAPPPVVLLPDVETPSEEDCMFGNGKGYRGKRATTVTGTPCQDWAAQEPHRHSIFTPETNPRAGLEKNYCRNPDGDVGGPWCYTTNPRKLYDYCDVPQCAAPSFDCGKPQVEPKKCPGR
# Sequence of Tryptase b2 (P20231 31-275): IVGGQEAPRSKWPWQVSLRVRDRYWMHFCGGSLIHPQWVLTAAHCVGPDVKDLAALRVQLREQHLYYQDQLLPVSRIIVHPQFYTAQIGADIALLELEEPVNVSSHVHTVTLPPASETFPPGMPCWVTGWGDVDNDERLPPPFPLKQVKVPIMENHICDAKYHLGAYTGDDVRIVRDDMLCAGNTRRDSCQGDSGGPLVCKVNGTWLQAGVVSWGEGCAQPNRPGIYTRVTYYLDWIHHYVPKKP
# Sequence of Cathepsin L (P07711 114-333, species assumed): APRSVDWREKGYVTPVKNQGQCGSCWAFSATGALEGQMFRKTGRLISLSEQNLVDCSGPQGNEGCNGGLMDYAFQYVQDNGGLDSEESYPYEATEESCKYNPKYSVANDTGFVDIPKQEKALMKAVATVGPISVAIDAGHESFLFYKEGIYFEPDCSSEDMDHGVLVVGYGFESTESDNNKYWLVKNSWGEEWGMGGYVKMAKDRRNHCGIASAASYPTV
# Sequence of Kallikrein 12 (Q9UKR0 18-248, species assumed): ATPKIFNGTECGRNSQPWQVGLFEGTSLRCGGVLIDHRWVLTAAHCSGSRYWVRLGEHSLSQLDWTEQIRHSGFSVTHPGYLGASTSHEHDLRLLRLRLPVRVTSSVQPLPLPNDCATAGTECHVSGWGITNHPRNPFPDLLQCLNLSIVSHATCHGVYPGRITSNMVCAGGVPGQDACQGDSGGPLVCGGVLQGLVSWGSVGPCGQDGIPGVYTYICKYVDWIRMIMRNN
# Sequence of Calpain 1 (P07384 whole entry): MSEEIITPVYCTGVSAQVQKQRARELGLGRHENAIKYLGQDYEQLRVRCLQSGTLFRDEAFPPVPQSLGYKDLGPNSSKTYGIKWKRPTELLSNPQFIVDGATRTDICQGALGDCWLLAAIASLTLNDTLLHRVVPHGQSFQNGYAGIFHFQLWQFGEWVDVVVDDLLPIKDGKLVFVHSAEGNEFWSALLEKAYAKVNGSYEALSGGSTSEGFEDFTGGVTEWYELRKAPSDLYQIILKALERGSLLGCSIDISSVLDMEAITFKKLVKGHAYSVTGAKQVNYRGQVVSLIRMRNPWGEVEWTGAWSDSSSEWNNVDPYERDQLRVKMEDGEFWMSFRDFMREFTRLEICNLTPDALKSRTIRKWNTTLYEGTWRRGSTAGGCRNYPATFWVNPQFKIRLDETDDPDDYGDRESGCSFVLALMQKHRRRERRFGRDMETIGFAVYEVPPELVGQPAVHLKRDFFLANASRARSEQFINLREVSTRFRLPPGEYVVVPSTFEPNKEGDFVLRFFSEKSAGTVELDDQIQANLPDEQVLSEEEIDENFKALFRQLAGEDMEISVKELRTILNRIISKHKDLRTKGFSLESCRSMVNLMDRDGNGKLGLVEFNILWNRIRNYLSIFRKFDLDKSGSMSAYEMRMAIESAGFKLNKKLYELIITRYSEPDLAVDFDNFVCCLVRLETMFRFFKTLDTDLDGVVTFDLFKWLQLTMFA
# Sequence of Calpain 1 (P04632 whole entry partner): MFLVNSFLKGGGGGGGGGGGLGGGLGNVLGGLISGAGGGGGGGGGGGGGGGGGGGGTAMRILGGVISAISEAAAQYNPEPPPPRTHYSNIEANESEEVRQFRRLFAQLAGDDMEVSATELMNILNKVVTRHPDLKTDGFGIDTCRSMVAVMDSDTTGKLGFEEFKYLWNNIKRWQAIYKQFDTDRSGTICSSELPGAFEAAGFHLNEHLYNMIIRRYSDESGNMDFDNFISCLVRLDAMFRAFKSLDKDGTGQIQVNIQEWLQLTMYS
# Sequence of Trypsin (P00760 24-246): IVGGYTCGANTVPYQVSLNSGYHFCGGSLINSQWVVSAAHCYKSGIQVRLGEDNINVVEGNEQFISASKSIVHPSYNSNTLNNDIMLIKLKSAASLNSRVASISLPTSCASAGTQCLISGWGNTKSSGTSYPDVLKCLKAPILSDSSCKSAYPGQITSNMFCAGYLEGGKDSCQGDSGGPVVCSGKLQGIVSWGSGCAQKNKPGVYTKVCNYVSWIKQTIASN
# Sequence of FXa (P00742 235-488 limits assumed): as the sequence (P00742 235-488 limits assumed) above
# Sequence of FXa (P00742 41-179 partner limits assumed): as the sequence (P00742 41-179 partner limits assumed) above
Compound,IC50 (HGFA),IC50 (Matriptase),IC50 (Hepsin),IC50 (Thrombin),IC50 (Factor Xa),other results
"CC(=O)NC(CO)C(=O)NC(CCCCN)C(=O)NC(CC(C)C)C(=O)NC(CCCNC(=N)N)C(=O)c1nc2ccccc2s1 (centres unmarked) [Compound 3, Ac-SKLR-kbt]",66 nM,6.1 nM,0.32 nM,> 20000 nM,3800 nM,
"CC(=O)N[C@@H](Cc1c[nH]c2ccccc12)C(=O)N[C@@H](Cc1ccccc1)C(=O)N[C@@H](CCCNC(=N)N)C(=O)c1nc2ccccc2s1 [Compound 8, Ac-WFR-kbt]",329 nM,5.7 nM,7.6 nM,> 20000 nM,22 nM,
"CC(=O)N[C@@H](CO)C(=O)N[C@@H](CCCCN)C(=O)N[C@@H](Cc1ccccc1)C(=O)N[C@@H](CCCNC(=N)N)C(=O)c1nccs1 [Compound 9, Ac-SKFR-kt]",114 nM,6.1 nM,17 nM,> 20000 nM,1060 nM,
"CC(=O)N[C@@H](CCCCN)C(=O)N[C@@H](CCC(N)=O)C(=O)N[C@@H](Cc1ccccc1)C(=O)N[C@@H](CCCNC(=N)N)C(=O)c1nccs1 [Compound 10, Ac-KQFR-kt]",116 nM,1.4 nM,1.2 nM,> 20000 nM,158 nM,
"CC(=O)N[C@@H](CO)C(=O)N[C@@H](CCC(N)=O)C(=O)N[C@@H](CC(C)C)C(=O)N[C@@H](CCCNC(=N)N)C(=O)c1nccs1 [Compound 11, Ac-SQLR-kt]",364 nM,18 nM,0.68 nM,,,
"CC(=O)N[C@@H](Cc1ccccc1)C(=O)N[C@@H](CC(C)C)C(=O)N[C@@H](Cc1ccccc1)C(=O)N[C@@H](CCCNC(=N)N)C(=O)c1nc2ccccc2s1 [Compound 12, Ac-FLFR-kbt]",228 nM,7.2 nM,2.9 nM,> 20000 nM,26 nM,
"CC(=O)N[C@H](Cc1c[nH]c2ccccc12)C(=O)N[C@@H](Cc1ccccc1)C(=O)N[C@@H](CCCNC(=N)N)C(=O)c1nc2ccccc2s1 [Compound 13, Ac-dWFR-kbt]",27 nM,2.6 nM,1.1 nM,3700 nM,98 nM,EC50 [1]: 32 nM
"CC(=O)N[C@@H](CC(C)C)C(=O)N[C@@H](CC(C)C)C(=O)N[C@@H](CCCNC(=N)N)C(=O)c1nccs1 [Compound 18, Ac-LLR-kt]",506 nM,56 nM,4.6 nM,,,EC50 [1]: 349 nM
"CC(C)C[C@H](NC(=O)[C@H]1O[C@@H]1C(=O)O)C(=O)NCCCCN=C(N)N [Compound E64, E64]",,,,,,IC50 (Calpain 1): 47.1 nM; IC50 (Cathepsin B): 7.33 nM; IC50 (Cathepsin C): 1180 nM; IC50 (Cathepsin H): 35.6 nM; IC50 (Cathepsin L): 12.4 nM; IC50 (Cathepsin S): 1.73 nM; IC50 (Cathepsin V): 3.89 nM; IC50 (Papain): 0.24 nM
CC(=O)N[C@@H](CC(=O)O)C(=O)N[C@@H](CCC(=O)O)C(=O)N[C@H](C(=O)N[C@H](C=O)CC(=O)O)C(C)C [DEVD-CHO],,,,,,IC50 (Caspase 6): 12.4 nM; IC50 (Caspase 7): 2.31 nM
CCOC(=O)c1ccc(OC(=O)CCCCCN=C(N)N)cc1 [Gabexate mesylate],,,,,,IC50 (FXa): 1860 nM; IC50 (Kallikrein 5): 4940 nM; IC50 (Kallikrein 7): 43100 nM; IC50 (Kallikrein 12): 94.3 nM; IC50 (Kallikrein 13): 12200 nM; IC50 (Kallikrein 14): 651 nM; IC50 (Matriptase 2): 391 nM; IC50 (Plasma Kallikrein): 148 nM; IC50 (Plasmin): 265 nM; IC50 (Thrombin a): 1570 nM; IC50 (Trypsin): 30.7 nM; IC50 (Tryptase b2): 9.7 nM; IC50 (Tryptase g1): 13.3 nM; IC50 (Urokinase): 24.4 nM
CC[C@H](C)[C@H](NC(C)=O)C(=O)N[C@@H](CCC(=O)O)C(=O)N[C@H](C(=O)N[C@H](C=O)CC(=O)O)[C@@H](C)O [IETD-CHO] (Ac-IETD-aldehyde),,,,,,IC50 (Caspase 1): 29.2 nM; IC50 (Caspase 2): 547 nM; IC50 (Caspase 4): 2130 nM; IC50 (Caspase 5): 11.5 nM; IC50 (Caspase 8): 2.83 nM; IC50 (Caspase 9): 26.4 nM; IC50 (Caspase 10): 9.17 nM; IC50 (Caspase 11): 567 nM
CC(=O)N[C@@H](CC(C)C)C(=O)N[C@@H](CC(C)C)C(=O)N[C@H](C=O)CCCNC(=N)N [Leupeptin],,,,,,IC50 (Kallikrein 1): 4610 nM; IC50 (Proteinase A): 244000 nM
"N=C(N)c1ccc2cc(OC(=O)c3ccc(N=C(N)N)cc3)ccc2c1 [Nafamostat, reference compound]",158 nM,,0.9 nM,5020 nM,4570 nM,IC50 (wild-type SARS-CoV-2): 220 nM
CCC(CC)COC(=O)[C@H](C)N[P@](=O)(OC[C@H]1O[C@@](C#N)(c2ccc3c(N)ncnn23)[C@H](O)[C@@H]1O)Oc1ccccc1 [Remdesivir],,,,,,IC50 (wild-type SARS-CoV-2): 1270 nM
(MCA)-K-KARSAFA-K-(DnP),,,,,,Km (TMPRSS2 protease domain): 0.6 ± 0.05 µM; kcat (TMPRSS2 protease domain): 0.07 s⁻¹
Cyclo(DMK)R-kbt [Compound 19],3240 nM,1 nM,5.9 nM,18500 nM,1390 nM,EC50 [1]: 119 nM
Cyclo(DQK)R-kbt [Compound 20],16100 nM,7.7 nM,22 nM,> 20000 nM,> 20000 nM,EC50 [1]: 138 nM
Cyclo(allylGLY)R-kbt [Compound 21],> 20000 nM,14 nM,20 nM,> 20000 nM,8810 nM,EC50 [1]: 565 nM
